Experimental data taken from publication PMC8156467, “Disruption of YY1-EZH2 Interaction Using Synthetic Peptides Inhibits Breast Cancer Development” (Cancers, 2021).

Assays:
His×6-YY1 = His×6-YY1 (Homo sapiens, UniProt P25490); assay: GST pull-down of His×6-YY1 by GST-EZH2 mutants; format: binding; settings: 1.0 µg His×6-YY1, 4 h
Source text: (§1) HA-tagged expression vectors of wild-type (wt) and mutant YY1 were constructed by amplifying and subcloning the corresponding fragments of the YY1 coding region into the pcDNA3 vector. To generate EZH2 mutants, different regions of its coding sequence (1–251, 252–384, 385–618, 619–751, 385–465, 465–545, 545–618, 465–492, and 465–519) were amplified and subcloned into pGEX-4T-1 and pSL4-3×Flag plasmids to construct vectors expressing recombinant GST-EZH2 and 3×Flag-EZH2 mutants, respectively. To generate vectors expressing 3×Flag-YPB, -OPB, and -Cont (with a scrambled sequence of […]) peptides, their coding sequences were individually subcloned into a lentiviral vector pSL4 using the CMV promoter to drive the expression of 3×Flag-YPB-2A1-EGFP, 3×Flag-OPB-2A1-EGFP, and 3×Flag-Cont-2A1-EGFP. […] Two shRNAs against PTENP1 (shPTENP1-1 and shPTENP1-2, with target sequences of […] and […], respectively), and one control shRNA (with a scrambled target sequence of […]) driven by the U6 promoter were generated in a lentiviral vector with a puromycin selection marker as we previously described. In addition, we also generated lentiviruses expressing two shRNAs (shYY1-1 and shYY1-2, with target sequences of […] and […], respectively), and two EZH2 (shEZH2-1 and shEZH2-2, with target sequences of […] and […]-[…], respectively).
The GST fusion protein expressed in E. coli was lysed with the binding buffer (20 mM Tris⋅HCl, pH 7.5, 150 mM NaCl, 0.1% Nonidet P-40, 1 mM dithiothreitol, 10% glycerol, 1 mM EDTA, 2.5 mM MgCl2, and 1 µg/mL leupeptin) for 30 min at 4 °C. Glutathione-Sepharose beads (Thermo Fisher Scientific) were incubated with bacterial lysates containing expressed recombinant GST-EZH2 mutant proteins for 4 h at 4 °C. After extensive washing of the beads, 1.0 µg of purified His×6-YY1 was added, and the samples were incubated for another 4 h. The washed beads with bound proteins were resuspended in an SDS-containing sample buffer and analyzed by SDS-PAGE.

HA-YY1 = assay: Co-IP of Flag-EZH2 wt/mutants with HA-YY1; format: binding; settings: co-IP, Flag-tagged EZH2 and HA-YY1
Source text: as §1
Immunoprecipitations were performed as described previously. Cells were harvested and lysed in cell lysis buffer (50 mM Tris⋅HCl, pH 7.5, 150 mM NaCl, 1% Nonidet P-40, 0.5% sodium deoxycholate, and 1% protease inhibitor cocktails, Sigma-Aldrich). […] In Western blot studies, protein concentrations of samples were determined using the Bradford protein method, and 20 μg of proteins for each sample were separated by SDS-PAGE followed by transfer to polyvinylidene difluoride (PVDF) membranes. […]
Figure 1 Identification of YY1 binding site on EZH2 protein. […] The samples were analyzed by Western blot using EZH2 and YY1 antibodies as indicated. […]

[1] = system: breast cancer cells (MCF-7, MDA-MB-231, MDA-MB-453); assay: Annexin V-FITC/PI apoptosis, breast cancer cells together; format: cell-based; settings: peptides 30 μM (no FITC), tamoxifen 15 µM, 48 h; vs Cont
Experimental: The cells were collected by trypsinization and washed twice by ice-cold PBS, followed by Annexin V-FITC and propidium iodide (PI) staining for 10 min using the reagents in an Annexin V-FITC Apoptosis Detection Kit (Vazyme Biotech Co. Ltd., Nanjing, China). The ratios of apoptotic cells were evaluated using flow cytometry (AccuriC6, BD Biosciences, San Jose, CA, USA).

Sequence of His×6-YY1 (P25490 whole entry, the tested form may be a part): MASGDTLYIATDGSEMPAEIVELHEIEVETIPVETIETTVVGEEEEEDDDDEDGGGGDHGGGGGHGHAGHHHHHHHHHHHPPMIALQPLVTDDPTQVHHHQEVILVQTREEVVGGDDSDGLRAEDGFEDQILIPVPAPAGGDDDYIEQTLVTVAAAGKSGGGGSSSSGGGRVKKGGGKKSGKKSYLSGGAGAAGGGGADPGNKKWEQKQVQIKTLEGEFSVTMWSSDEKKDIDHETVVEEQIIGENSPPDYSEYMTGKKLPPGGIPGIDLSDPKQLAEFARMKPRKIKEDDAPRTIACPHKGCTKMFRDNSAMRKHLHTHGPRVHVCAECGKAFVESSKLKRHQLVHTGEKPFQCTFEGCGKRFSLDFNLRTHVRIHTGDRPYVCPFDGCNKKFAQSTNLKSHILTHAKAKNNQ

Compound	interaction with His×6-YY1 in GST pull-down (His×6-YY1)	interaction with HA-YY1 in co-IP (HA-YY1)	other results
GST-EZH2 (385–618): GST fusion of EZH2 residues 385–618	could interact with His×6-YY1	–	–
(385–618): Flag-tagged EZH2 region 385–618	–	could bring down HA-YY1	–
GST-EZH2 (465–545): GST fusion of EZH2 residues 465–545	could also pull down His×6-YY1	–	–
Flag-EZH2 wt: Flag-tagged wild-type EZH2	–	could bring down HA-YY1	–
EZH2 (465–545): Flag-tagged EZH2 mutant 465–545	–	could interact with HA-YY1	–
GST-EZH2 (465–519): GST fusion of EZH2 residues 465–519	could interact with His×6-YY1	–	–
CC/C(=C(\c1ccccc1)c1ccc(OCCN(C)C)cc1)c1ccccc1 [tamoxifen]	–	–	pro-apoptotic portions of breast cancer cells [1]: could significantly increase the pro-apoptotic portions
